# Tests used:
# βTC-3 cells = assay: Inhibition of IL-1β induced pancreatic β-cell death by TAT-IB peptides; format: cell-based
# Method: We investigated the effects of the inventive L-TAT-IB(s) peptides on the promotion of β-cell apoptosis elicited by IL-1. PTC-3 cell cultures were incubated for 30 minutes with 1 μM of inventive L-TAT-IB1(s) peptides followed by 10 ng/mL of IL-1. A second addition of peptide (1 μM) was performed 24 hours later. Apoptotic cells were counted after two days of incubation with IL-1β using propidium iodide (red stained cell are dead cells) and Hoechst 33342 (blue stained cell are cells with intact plasma membrane) nuclear staining.
# Long term inhibition of IL-1 induced cells death was examined by treating βTC-3 cells as described above, except that incubation of the cells with the peptides and IL-1β was sustained for 12 days. Additional peptides (1 μM) were added each day and additional IL-1β (10 ng/mL) was added every 2 days. […] Taken together, these experiments provide evidence that inventive TAT-IB(s) peptides are biologically active molecules able to prevent the effects of JNK signaling on cell fate.
# Inhibition of IL-1β induced pancreatic β-cell death by the inventive D-TAT-IB1(s) peptide was analyzed. βTC-3 cells were incubated as described above for 30 minutes with one single addition of the indicated peptides (1, μM), then IL-1 (10 ng/ml) was added.
# Apoptotic cells were then counted after two days of incubation with IL-1β by use of Propidium Iodide and Hoechst 33342 nuclear staining. A minimum of 1,000 cells were counted for each experiment. Standard Error of the Means (SEM) are indicated, n=5.
# Long term inhibition of IL-1P induced cell-death by the D-TAT-IB1 peptide was also analyzed. βTC-3 cells were incubated as above for 30 minutes with one single addition of the indicated peptides (1 μM), then IL-1β (10 ng/ml) was added, followed by addition of the cytokine every two days. Apoptotic cells were then counted after 15 days of incubation with IL-1 by use of propidium iodide and Hoechst 33342 nuclear staining. […] A minimum of 1.000 cells were counted for each experiment.
# [1] = system: primary embryonic cultures and differentiated PC12 cells; settings: dosages that inhibit activation of JNKs; cited from earlier work
# JNK = settings: JBDs; cited from earlier work
# βTC-3 cell cultures = assay: Cellular import of fluorescein-labeled TAT and TAT-IB1(s) peptides; format: cell-based
# Method: The ability of the L- and D-enantiomeric forms of TAT and inventive TAT-IB1(s) peptides (“TAT-IB peptides”) to enter cells was evaluated. L-TAT, D-TAT, inventive L-TAT-IB1(s), and inventive D-TAT-IB1(s) peptides [SEQ ID NOs: 5, 6, 9 and 12, respectively] were labeled by N-terminal addition of a glycine residue conjugated to fluorescein. Labeled peptides (1 μM) were added to βTC-3 cell cultures, which were maintained as described in Example 3. At predetermined times cells were washed with PBS and fixed for five minutes in ice-cold methanol-acetone (1:1) before being examined under a fluorescence microscope. Fluorescein-labeled BSA (1 μM, 12 moles/mole BSA) was used as a control.
# [2] = system: activation of c-Jun by JNK; assay: GAL4 reporter system (GAL-Jun, 5xGAL-LUC) in HeLa cells with MKK4/MKK7 co-transfection; format: cell-based
# Description: To determine whether the inventive cell-permeable peptides could block JNK signaling in vivo, we used a heterologous GAL4 system. HeLa cells, cultured as described above, were co-transfected with the 5×GAL-LUC reporter vector together with the GAL-Jun expression construct (Stratagene) comprising the activation domain of c-jun (amino acids 1-89) linked to the GAL4 DNA-binding domain. Activation of JNK was achieved by the co-transfection of vectors expressing the directly upstream kinases MKK4 and MKK7 (see Whitmarsh et al., Science 285: 1573 (1999)). Briefly, 3×10^5 cells were transfected with the plasmids in 3.5-cm dishes using DOTAP (Boehringer Mannheim) following instructions from the manufacturer. For experiments involving GAL-Jun, 20 ng of the plasmid was transfected with 1 μg of the reporter plasmid pFR-Luc (Stratagene) and 0.5 μg of either MKK4 or MKK7 expressing plasmids. Three hours following transfection, cell media were changed and TAT and TAT-IB1(s) peptides (1 μM) were added. The luciferase activities were measured 16 hours later using the “Dual Reporter System” from PROMEGA® after normalization to protein content. […] Because HeLa cells express JNK1 and JNK2 isoforms but not JNK3, we transfected cells with JNK3.
# [3] = system: recombinant JNK1, JNK2 and JNK3; assay: Solid phase kinase assay: JNK-mediated phosphorylation of c-Jun, ATF2 and Elk1; format: biochemical
# Method: (§1) The effects of the peptides on JNKs-mediated phosphorylation of their target transcription factors were investigated in vitro. Recombinant and non activated JNK1, JNK2 and JNK3 were produced using a TRANSCRIPTION AND TRANSLATION rabbit reticulocyte lysate kit (PROMEGA®) and used in solid phase kinase assays with c-jun, ATF2 and Elk1, either alone or fused to glutathione-S-transferase (GST), as substrates. Dose response studies were performed wherein inventive L-TAT or L-TAT-IB1(s) peptides (0-25 μM) were mixed with the recombinant JNK1, JNK2, or JNK3 kinases in reaction buffer (20 mM Tris-acetate, 1 mM EGTA, 10 mM p-nitrophenyl-phosphate (pNPP), 5 mM sodium pyrophosphate, 10 mM p-glycerophosphate, 1 mM dithiothreitol) for 20 minutes. The kinase reactions were then initiated by the addition of 10 mM MgCl2 and 5 pCi^33P-γ-dATP and 1 μg of either GST-Jun (aa 1-89), GST-AFT2 (aa 1-96) or GST-ELK1 (aa 307-428). GST-fusion proteins were purchased from Stratagene (La Jolla, Calif.).
# (§2) Ten μL of glutathione-agarose beads were also added to the mixture. Reaction products were then separated by SDS-PAGE on a denaturing 10% polyacrylamide gel. Gels were dried and subsequently exposed to X-ray films (Kodak).
# The ability of D-TAT, inventive D-TAT-IB1(s) and inventive L-TAT-IB1 (s) peptides (0-250 μM dosage study) to inhibit GST-Jun (aa 1-73) phosphorylation by recombinant JNK1, JNK2, and JNK3 by were analyzed as described above. Overall, D-TAT-IB1(s) peptide decreased JNK-mediated phosphorylation of c-Jun, but at levels approximately 10-20 fold less efficiently than L-TAT-IB1(s).
# [4] = system: JNKs activated by stressful stimuli; assay: c-Jun phosphorylation by activated JNKs pulled down with GST-Jun from UV-irradiated HeLa or IL-1β treated βTC-3 cells; format: biochemical; settings: 25 μM peptide, 20 minutes
# Method: The effects of the L-TAT or inventive L-TAT-IB1(s) peptides on JNKs activated by stressful stimuli were evaluated using GST-Jun to pull down JNKs from UV-light irradiated HeLa cells or IL-1β treated PTC cells. PTC cells were cultured as described above. HeLa cells were cultured in DMEM medium supplemented with 10% Fetal Calf Serum, 100 μg/mL Streptomycin, 100 units/ml Penicillin and 2 mM Glutamine. One hour prior to being used for cell extract preparation, PTC cells were activated with IL-1β as described above, whereas HeLa cells were activated by UV-light (20 J/m^2). Cell extracts were prepared from control, UV-light irradiated HeLa cells and IL-1β treated βTC-3 cells by scraping the cell cultures in lysis buffer (20 mM Tris-acetate, 1 mM EGTA, 1% Triton X-100, 10 mM p-nitrophenyl-phosphate, 5 mM sodium pyrophosphate, 10 mMP-glycerophosphate, 1 mM dithiothreitol). Debris was removed by centrifugation for five minutes at 15,000 rpm in an SS-34 Beckman rotor. One-hundred μg extracts were incubated for one hour at room temperature with one μg GST-jun (amino acids 1-89) and 10 μL of glutathione-agarose beads (Sigma). Following four washes with the scraping buffer, the beads were resuspended in the same buffer supplemented with L-TAT or inventive L-TAT-IB1(s) peptides (25 μM) for 20 minutes. […]
# JNK3 = target: T1, JNK3 (Homo sapiens, UniProt P53779); assay: Solid phase kinase assay: JNK3 phosphorylation of Elk1; format: biochemical; settings: dose response 0-25 μM, GST-ELK1 (aa 307-428)
# T1 construct: host or cells: rabbit reticulocyte lysate, in vitro transcription/translation
# T1 sequence (P53779 whole entry, species assumed, the tested form may be a part): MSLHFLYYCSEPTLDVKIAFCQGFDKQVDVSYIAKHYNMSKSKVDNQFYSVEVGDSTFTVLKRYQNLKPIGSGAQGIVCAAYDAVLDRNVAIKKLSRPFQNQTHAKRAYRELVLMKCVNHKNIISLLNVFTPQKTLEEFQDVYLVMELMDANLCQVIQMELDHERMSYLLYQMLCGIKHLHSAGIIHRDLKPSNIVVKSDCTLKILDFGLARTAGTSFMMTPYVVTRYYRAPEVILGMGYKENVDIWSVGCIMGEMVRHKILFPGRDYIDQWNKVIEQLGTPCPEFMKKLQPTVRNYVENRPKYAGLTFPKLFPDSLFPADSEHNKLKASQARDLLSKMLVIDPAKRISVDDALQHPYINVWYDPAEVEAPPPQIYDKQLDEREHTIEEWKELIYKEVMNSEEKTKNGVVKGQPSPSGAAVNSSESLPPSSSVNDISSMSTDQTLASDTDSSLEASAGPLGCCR
# Method: as §1, §2
# gerbil = settings: in vivo; cited from earlier work
# AP-1 DNA binding complex = assay: Gel retardation assay with AP-1 probe, HeLa cell nuclear extracts, TNF-α; format: cell-based; settings: peptide added 30 minutes before TNF-α 5 ng/ml
# WiDr cells = assay: Irradiation (30 Gy) induced apoptosis of WiDr cells; format: cell-based, human; settings: 1 μM added 30 minutes before 30 Gy, analyzed 48 hours later
# Method: JNK is also activated by ionizing radiation. To determine whether inventive TAT-IB(s) peptides would provide protection against radiation-induced JNK damage, “WiDr” cells were irradiated (30 Gy) in presence or absence of D-TAT, inventive L-TAT-IB1(s) or inventive D-TAT-IB1(s) peptides (1 μM added 30 minutes before irradiation). Control cells (CTRL) were not irradiated. Cells were analyzed 48 hours later by means of PI and Hoechst 3342 staining, as described above. N=3, SEM are indicated.
molecule,measurement,setting,value
"TDQSRPVQPFLNLTTPRKPRYTDPPRRRQRRKKRG (TDQSRPVQPFLNLTTPRKPRYTDPPRRRQRRKKRG) [D-TAT-IB1, reference compound]",decrease of IL-1 induced apoptosis,"βTC-3 cells; one single addition of peptide 1 μM, two days of IL-1β",decreased IL-1 induced apoptosis to a similar extent as L-TAT-IB peptides
CCSCc1ccc2c(c1)c1c3c(c4c5cc(CSCC)ccc5n5c4c1n2[C@H]1C[C@](O)(C(=O)OC)[C@]5(C)O1)CNC3=O [CEP-1347],neuronal survival,[1],promotes neuronal survival at dosages that inhibit activation of the c-Jun amino-terminal kinases (JNKs)
IPSPSVEEPHKHRPTTLRLTTLGAQDS (IPSPSVEEPHKHRPTTLRLTTLGAQDS) [IB2],efficiency in binding JNK relative to c-Jun or ATF2,JNK,approximately 100 fold
NH2-RRRQRRKKRG-COOH (D-amino acids) [D-TAT],stability inside the cells,βTC-3 cell cultures,extremely stable inside the cells
TAT-IB(s): enantiomer not worded; the examples concerned name L-TAT-IB1(s) (SEQ ID NO: 9) as the tested peptide (GRKKRRQRRRPPRPKRPTTLNLFPQVPRSQD),activation of c-Jun following MKK4 and MKK7 mediated activation of JNK (luciferase),"[2]; 1 μM peptide, luciferase measured 16 hours later",blocked activation of c-Jun following MKK4 and MKK7 mediated activation of JNK
same,activation of c-Jun in cells transfected with JNK3,"[2]; HeLa cells transfected with JNK3, 1 μM peptide",inhibited JNK2 mediated activation of c-Jun
same,"inhibition of JNK family phosphorylation of target transcription factors, overall",[3],superior effects in inhibiting JNK family phosphorylation of their target transcription factors
same,"peptide dose giving nearly complete inhibition of c-Jun, ATF2 and Elk1 phosphorylation by JNKs","[3]; dose response 0-25 μM, doses as low as",2.5 µM
same,prevention of phosphorylation of c-Jun by activated JNKs,[4],efficiently prevented phosphorylation of c-Jun by activated JNKs
same,inhibition of IL-1-induced apoptosis,"βTC-3 cells; 1 μM peptide, second addition at 24 hours, IL-1β 10 ng/mL for two days",inhibited IL-1-induced apoptosis of βTC-3 cells
same,long term protection against IL-1 induced apoptosis,"βTC-3 cells; 12 days, peptide 1 μM added each day, IL-1β every 2 days",confers strong protection against apoptosis
same,inhibition of JNK3 phosphorylation of Elk1,JNK3,absence of TAT-IB(s) inhibition of JNK3 phosphorylation of Elk1
N#CC(c1ccnc(NCCc2cccnc2)n1)c1nc2ccccc2s1 (centres unmarked) [AS601245],protection against delayed loss of hippocampal CA1 neurons,gerbil,significant protection against the delayed loss of hippocampal CA1 neurons
NH2-GRKKRRQRRR-COOH (H-GRKKRRQRRR-OH) [L-TAT],entry of fluorescein labeled peptide into cells,"βTC-3 cell cultures; 1 μM labeled peptide added to culture medium, fluorescence microscope",efficiently and rapidly (less than five minutes) entered cells
PGTGCGDTYRPKRPTTLNLFPQVPRSQDT (PGTGCGDTYRPKRPTTLNLFPQVPRSQDT) [IB1],efficiency in binding JNK relative to c-Jun or ATF2,JNK,approximately 100 fold
H-GRKKRRQRRRPPRPKRPTTLNLFPQVPRSQD-OH [L-TAT-IB1(s)],formation of the AP-1 DNA binding complex,AP-1 DNA binding complex,decrease the formation of the AP-1 DNA binding complex in the presence of TNF-α
same,prevention of irradiation induced apoptosis,WiDr cells,able to prevent irradiation induced apoptosis
